Experimental data: ChEMBL document CHEMBL5465560, “Selectivity Literature for EUbOPEN Chemogenomic Library” (2024)
pIC50: −log10 of the molar value.

Tests used:
[1] = biological target: Hepatocyte growth factor receptor (Homo sapiens, UniProt P08581); assay: (§1) Selectivity interaction (KinomeScan (DiscoverX)) EUB0000229b MET; conditions: at 10 µM
[2] = system: Hepatocyte growth factor receptor (Homo sapiens), P08581 [Y1235D]; assay: as §1; conditions: at 1 µM
[3] = system: Hepatocyte growth factor receptor (Homo sapiens), P08581 [M1250T]; assay: as §1; conditions: at 1 µM
[4] = biological target: T1, Inhibitor of nuclear factor kappa-B kinase subunit beta (Homo sapiens) (UniProt O14920); conditions: at 10 µM
T1 sequence (whole entry): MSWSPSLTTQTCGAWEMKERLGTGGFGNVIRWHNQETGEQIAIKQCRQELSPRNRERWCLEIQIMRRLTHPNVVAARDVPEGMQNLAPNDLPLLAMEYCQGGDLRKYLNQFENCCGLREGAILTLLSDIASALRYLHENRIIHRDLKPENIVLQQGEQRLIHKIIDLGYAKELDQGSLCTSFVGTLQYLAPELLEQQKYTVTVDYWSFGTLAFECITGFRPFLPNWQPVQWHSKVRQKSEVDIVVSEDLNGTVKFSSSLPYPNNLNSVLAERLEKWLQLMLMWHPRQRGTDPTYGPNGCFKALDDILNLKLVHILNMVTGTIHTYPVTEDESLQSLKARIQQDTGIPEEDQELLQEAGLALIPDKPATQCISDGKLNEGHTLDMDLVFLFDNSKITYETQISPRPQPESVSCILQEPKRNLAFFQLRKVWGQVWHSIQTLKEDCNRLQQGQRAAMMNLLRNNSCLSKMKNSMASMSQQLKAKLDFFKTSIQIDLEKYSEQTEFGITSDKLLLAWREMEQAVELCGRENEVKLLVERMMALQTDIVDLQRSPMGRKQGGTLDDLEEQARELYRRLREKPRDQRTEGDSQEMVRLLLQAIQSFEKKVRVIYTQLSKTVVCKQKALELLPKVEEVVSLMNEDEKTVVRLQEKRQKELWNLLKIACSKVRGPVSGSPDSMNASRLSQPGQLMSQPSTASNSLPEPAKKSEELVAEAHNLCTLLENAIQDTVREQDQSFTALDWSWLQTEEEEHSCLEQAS

[5] = biological target: Serine/threonine-protein kinase pim-2 (Homo sapiens, UniProt Q9P1W9)
[6] = biological target: T2, Phosphatidylinositol 3-kinase C2 domain-containing subunit gamma (Homo sapiens) (UniProt O75747); assay: Selectivity interaction (ProQinase) EUB0000171b PIK3C2G
T2 sequence (whole entry): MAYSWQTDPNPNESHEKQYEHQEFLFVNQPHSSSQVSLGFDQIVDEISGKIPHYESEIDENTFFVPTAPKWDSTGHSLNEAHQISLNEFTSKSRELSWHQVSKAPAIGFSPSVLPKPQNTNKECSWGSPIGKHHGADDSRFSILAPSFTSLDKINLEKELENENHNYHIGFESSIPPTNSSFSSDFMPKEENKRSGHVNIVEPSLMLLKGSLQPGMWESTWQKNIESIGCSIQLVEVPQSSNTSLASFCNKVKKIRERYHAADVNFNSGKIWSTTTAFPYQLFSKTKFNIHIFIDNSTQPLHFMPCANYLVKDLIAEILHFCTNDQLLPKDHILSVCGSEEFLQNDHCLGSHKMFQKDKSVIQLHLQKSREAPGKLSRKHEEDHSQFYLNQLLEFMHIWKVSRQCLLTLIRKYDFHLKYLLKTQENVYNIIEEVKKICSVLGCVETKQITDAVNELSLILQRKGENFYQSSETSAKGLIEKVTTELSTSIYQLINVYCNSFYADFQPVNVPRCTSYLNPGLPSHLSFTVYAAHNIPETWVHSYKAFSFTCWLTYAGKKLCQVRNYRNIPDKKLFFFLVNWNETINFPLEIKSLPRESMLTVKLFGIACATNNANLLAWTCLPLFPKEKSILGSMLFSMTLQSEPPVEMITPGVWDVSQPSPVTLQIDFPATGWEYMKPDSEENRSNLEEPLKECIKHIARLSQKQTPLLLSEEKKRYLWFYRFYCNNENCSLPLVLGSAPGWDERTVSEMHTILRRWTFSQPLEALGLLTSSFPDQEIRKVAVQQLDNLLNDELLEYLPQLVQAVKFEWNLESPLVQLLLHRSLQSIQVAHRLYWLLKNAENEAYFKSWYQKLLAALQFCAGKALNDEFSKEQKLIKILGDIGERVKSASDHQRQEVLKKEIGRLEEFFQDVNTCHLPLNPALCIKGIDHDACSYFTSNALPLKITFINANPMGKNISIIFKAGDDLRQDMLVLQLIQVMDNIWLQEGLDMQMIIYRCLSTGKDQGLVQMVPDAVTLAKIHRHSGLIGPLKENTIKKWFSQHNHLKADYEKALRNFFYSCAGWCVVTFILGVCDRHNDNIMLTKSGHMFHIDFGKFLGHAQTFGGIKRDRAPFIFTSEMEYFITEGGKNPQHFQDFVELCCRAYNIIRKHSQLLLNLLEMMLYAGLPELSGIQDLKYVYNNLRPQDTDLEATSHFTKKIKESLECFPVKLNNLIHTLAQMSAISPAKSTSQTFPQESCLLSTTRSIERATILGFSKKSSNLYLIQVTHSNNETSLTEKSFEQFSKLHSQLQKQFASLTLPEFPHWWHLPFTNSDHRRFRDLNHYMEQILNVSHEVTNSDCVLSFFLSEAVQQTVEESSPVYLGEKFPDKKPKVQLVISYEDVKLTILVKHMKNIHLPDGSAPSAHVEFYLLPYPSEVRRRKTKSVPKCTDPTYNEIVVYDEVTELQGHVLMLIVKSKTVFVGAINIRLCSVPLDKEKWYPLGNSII

[7] = biological target: Tyrosine-protein kinase ABL2 (Homo sapiens, UniProt P42684); assay: Selectivity interaction (SelectScreen profiling (Invitrogen)) EUB0000607a ABL2; conditions: at 2 µM
[8] = biological target: T3, Casein kinase I isoform alpha (Homo sapiens, UniProt P48729); assay: Selectivity interaction (KinomeScan (DiscoverX)) EUB0000618a CSNK1A1; conditions: at 10 µM
[9] = biological target: Cyclin-dependent kinase 13 (Homo sapiens, UniProt Q14004); assay: Selectivity interaction (ActivX KiNativ screen (kinase selectivity in THP-1 cell lysates)) EUB0000639a CDK13; type: subcellular; conditions: lysate
[10] = biological target: T3, Casein kinase I isoform alpha; assay: Selectivity interaction (ActivX KiNativ screen (kinase selectivity in THP-1 cell lysates)) EUB0000639a CSNK1A1; type: subcellular; conditions: lysate

T3 sequence (P48729 2-337 limits assumed): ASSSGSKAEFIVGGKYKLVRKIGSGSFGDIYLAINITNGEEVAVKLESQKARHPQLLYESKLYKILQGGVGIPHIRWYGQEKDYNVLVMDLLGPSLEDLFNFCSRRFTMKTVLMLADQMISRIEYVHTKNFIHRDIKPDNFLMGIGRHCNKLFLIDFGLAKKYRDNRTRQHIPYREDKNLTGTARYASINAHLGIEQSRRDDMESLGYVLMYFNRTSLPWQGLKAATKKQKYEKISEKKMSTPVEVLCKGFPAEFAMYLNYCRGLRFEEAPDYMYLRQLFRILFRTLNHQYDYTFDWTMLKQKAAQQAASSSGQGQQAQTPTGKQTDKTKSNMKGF
Sequence of Cyclin-dependent kinase 13 (Q14004 whole entry, looked up, canonical isoform): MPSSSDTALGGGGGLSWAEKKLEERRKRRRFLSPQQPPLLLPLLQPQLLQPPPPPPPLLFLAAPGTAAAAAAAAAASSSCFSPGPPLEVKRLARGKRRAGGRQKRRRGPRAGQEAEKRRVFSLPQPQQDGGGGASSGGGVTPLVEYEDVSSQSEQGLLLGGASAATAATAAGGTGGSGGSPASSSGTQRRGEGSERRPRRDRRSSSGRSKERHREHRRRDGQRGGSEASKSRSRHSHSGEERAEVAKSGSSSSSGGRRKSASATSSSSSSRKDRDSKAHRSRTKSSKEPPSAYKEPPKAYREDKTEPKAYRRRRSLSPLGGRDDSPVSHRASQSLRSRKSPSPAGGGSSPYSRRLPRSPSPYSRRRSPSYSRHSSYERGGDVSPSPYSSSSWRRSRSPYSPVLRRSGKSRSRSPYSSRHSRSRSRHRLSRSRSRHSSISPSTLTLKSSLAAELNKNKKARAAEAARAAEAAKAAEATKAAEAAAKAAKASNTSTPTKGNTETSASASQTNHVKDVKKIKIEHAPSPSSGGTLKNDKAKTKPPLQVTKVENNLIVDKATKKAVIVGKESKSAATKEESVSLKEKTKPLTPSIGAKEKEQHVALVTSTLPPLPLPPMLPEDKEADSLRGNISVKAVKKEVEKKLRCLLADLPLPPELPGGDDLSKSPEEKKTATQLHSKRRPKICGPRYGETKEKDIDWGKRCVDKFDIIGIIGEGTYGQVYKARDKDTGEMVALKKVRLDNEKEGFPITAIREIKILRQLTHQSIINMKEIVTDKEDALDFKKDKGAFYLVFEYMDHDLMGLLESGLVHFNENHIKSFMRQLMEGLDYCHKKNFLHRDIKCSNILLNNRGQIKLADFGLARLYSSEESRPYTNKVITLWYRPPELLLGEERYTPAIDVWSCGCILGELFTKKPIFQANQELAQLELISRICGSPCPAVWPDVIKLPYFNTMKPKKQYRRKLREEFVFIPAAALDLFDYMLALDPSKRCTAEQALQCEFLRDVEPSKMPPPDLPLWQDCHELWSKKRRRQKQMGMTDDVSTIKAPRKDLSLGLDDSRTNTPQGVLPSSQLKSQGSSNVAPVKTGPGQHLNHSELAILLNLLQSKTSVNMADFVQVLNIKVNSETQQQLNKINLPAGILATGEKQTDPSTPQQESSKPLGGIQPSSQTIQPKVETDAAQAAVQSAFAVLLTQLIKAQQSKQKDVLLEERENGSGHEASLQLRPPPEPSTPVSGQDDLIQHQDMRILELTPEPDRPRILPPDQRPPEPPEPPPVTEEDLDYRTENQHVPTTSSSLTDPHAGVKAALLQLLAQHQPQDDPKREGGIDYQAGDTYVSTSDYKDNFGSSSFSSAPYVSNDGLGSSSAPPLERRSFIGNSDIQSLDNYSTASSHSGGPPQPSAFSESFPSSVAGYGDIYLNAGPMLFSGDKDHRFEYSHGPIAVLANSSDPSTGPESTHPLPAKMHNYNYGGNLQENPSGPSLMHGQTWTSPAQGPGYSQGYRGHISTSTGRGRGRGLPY
Sequence of Serine/threonine-protein kinase pim-2 (Q9P1W9 whole entry, the tested form may be a part): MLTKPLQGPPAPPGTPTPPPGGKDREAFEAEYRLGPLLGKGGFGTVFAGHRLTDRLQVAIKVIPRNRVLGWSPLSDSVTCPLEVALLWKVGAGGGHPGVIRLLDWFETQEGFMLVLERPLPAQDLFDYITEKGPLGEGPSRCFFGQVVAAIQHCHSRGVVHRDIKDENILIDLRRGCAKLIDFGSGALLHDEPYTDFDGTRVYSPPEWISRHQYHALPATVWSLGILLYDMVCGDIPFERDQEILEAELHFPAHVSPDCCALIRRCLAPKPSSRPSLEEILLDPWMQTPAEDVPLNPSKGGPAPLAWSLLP
Sequence of Tyrosine-protein kinase ABL2 (P42684 whole entry, canonical isoform): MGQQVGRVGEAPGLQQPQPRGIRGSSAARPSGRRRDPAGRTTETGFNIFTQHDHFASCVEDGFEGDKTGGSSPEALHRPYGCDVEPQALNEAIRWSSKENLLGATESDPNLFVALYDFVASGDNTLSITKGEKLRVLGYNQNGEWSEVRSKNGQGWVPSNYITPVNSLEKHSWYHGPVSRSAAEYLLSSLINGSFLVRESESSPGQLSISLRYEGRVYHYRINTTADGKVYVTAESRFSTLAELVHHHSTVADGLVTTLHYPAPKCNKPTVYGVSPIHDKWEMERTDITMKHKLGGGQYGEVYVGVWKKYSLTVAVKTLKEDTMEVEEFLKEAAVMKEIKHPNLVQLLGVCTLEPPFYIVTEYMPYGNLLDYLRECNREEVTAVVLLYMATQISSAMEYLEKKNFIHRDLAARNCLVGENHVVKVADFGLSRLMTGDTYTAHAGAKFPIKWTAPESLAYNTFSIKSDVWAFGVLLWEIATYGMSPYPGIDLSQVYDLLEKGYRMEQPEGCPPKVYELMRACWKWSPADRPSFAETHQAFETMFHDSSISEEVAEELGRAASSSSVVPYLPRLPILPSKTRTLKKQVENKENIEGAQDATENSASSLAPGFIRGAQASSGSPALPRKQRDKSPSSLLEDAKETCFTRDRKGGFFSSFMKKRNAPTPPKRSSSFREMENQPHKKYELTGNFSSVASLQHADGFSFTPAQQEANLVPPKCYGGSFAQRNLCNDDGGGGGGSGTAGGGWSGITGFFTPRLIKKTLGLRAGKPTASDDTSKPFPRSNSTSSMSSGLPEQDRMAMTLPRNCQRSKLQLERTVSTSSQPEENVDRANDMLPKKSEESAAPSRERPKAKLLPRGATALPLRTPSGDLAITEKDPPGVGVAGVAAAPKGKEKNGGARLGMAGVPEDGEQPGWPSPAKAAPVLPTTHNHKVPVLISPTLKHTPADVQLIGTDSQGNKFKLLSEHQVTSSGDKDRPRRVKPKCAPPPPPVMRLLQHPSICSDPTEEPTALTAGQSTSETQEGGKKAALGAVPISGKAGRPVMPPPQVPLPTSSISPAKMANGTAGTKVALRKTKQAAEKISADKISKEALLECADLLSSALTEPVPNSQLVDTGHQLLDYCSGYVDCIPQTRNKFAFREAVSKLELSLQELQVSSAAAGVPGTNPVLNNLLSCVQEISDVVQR
Sequence of Hepatocyte growth factor receptor (Homo sapiens), P08581 [M1250T] (P08581 whole entry M1250T): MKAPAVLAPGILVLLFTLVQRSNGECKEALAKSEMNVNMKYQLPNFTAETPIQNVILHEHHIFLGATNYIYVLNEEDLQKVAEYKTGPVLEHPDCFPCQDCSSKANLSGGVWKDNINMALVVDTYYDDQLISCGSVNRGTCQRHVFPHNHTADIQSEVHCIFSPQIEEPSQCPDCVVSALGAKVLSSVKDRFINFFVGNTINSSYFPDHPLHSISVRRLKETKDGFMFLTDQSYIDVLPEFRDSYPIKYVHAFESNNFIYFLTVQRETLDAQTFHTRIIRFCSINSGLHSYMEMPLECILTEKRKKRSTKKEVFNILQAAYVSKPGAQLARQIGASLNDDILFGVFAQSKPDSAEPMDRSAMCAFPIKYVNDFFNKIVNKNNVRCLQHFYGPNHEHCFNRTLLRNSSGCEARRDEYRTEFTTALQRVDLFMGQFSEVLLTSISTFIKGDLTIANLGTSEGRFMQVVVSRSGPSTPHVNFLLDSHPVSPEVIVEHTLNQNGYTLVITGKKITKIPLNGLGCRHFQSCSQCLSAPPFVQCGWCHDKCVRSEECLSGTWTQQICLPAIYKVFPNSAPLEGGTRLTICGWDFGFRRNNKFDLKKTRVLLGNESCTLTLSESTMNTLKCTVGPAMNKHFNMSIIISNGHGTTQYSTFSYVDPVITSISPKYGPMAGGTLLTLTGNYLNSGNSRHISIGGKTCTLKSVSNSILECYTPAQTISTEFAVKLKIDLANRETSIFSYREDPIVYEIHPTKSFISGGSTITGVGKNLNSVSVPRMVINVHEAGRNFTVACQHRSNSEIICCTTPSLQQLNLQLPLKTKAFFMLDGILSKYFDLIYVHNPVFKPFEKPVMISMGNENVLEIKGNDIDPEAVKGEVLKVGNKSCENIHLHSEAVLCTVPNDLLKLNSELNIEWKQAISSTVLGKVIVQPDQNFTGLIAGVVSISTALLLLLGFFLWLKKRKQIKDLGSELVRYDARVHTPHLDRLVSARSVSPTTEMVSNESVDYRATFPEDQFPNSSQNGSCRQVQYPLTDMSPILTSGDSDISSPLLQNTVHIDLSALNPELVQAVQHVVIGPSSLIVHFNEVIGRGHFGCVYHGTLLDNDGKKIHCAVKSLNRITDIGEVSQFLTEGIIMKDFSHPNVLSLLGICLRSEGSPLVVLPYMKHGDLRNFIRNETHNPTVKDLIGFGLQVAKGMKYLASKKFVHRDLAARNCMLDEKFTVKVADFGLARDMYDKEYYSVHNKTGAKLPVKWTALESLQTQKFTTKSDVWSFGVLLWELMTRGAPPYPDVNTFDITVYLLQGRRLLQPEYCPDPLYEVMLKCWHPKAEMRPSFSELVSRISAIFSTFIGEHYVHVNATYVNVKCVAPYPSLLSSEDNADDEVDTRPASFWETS

`COc1cc(N(C)c2ccnc3ccc(C(F)(F)F)cc23)cc(OC)c1OC` gave a % binding [1] of 100%, a % binding [2] of 82% and a % binding [3] of 96%.
`Cc1cc([C@@H](C)Nc2ccccc2C(=O)O)c2nc(N3CCOCC3)cc(=O)n2c1` [AZD-6482] showed a % of control [4] of 90%.
`CCc1cccc(CC)c1NC(=O)c1nn(C)c2c1CCc1cnc(Nc3ccc(C(=O)NC4CCN(C)CC4)cc3OC(F)(F)F)nc1-2` gave a pIC50 [5] of under 5.00.
With `C=CC(=O)Nc1cccc(C(=O)Nc2ccc(Nc3cc(-c4[nH]c(SC)nc4C)ccn3)cc2)c1` the % of control ([6]; at 1 µM) was 129% and the % of control ([6]; at 5 µM) was 108%.
`CNC(=O)Nc1ccc(-c2nc(N3CC4CCC(C3)O4)c3cnn(C4CCC5(CC4)OCCO5)c3n2)cc1` was tested, and the % of inhibition [7] was 13%.
In the case of `O[C@H]1CC[C@H](Nc2ncc3nc(Nc4c(F)cc(F)cc4F)n([C@H]4CCOC4)c3n2)CC1`, the % of control [8] was 100%.
`CC[C@@H]1[C@H](F)C(=O)N[C@@H]1COc1nccc2cc(C(N)=O)c(OC)cc12` [ZIMLOVISERTIB] showed a % of inhibition ([9]; at 0.01 µM) of 3.8%, a % of inhibition ([9]; at 0.04 µM) of -10.7% and a % of inhibition ([9]; at 0.2 µM) of -1.5%. The % of inhibition ([9]; at 1 µM) was -2.6%, the % of inhibition ([9]; at 5 µM) was 5.1% and the % of inhibition ([10]; at 0.01 µM) was -11.5%. The % of inhibition ([10]; at 0.04 µM) was -1%, the % of inhibition ([10]; at 0.2 µM) was -9.3% and the % of inhibition ([10]; at 1 µM) was -0.4%. It also gave a % of inhibition ([10]; at 5 µM) of 16.4%.
